Laboratory results as given in patent publication EP3270157B1, “SCREENING ASSAY FOR SWEETNESS” (Firmenich SA, priority 2016, dated 2018).
Read-outs that look alike come from different tables or passages of the source.

Biological target: T1, T1R2/T1R3 receptor (Homo sapiens, UniProt Q7RTX0+Q8TE23)
T1 sequence (Q8TE23 20-839): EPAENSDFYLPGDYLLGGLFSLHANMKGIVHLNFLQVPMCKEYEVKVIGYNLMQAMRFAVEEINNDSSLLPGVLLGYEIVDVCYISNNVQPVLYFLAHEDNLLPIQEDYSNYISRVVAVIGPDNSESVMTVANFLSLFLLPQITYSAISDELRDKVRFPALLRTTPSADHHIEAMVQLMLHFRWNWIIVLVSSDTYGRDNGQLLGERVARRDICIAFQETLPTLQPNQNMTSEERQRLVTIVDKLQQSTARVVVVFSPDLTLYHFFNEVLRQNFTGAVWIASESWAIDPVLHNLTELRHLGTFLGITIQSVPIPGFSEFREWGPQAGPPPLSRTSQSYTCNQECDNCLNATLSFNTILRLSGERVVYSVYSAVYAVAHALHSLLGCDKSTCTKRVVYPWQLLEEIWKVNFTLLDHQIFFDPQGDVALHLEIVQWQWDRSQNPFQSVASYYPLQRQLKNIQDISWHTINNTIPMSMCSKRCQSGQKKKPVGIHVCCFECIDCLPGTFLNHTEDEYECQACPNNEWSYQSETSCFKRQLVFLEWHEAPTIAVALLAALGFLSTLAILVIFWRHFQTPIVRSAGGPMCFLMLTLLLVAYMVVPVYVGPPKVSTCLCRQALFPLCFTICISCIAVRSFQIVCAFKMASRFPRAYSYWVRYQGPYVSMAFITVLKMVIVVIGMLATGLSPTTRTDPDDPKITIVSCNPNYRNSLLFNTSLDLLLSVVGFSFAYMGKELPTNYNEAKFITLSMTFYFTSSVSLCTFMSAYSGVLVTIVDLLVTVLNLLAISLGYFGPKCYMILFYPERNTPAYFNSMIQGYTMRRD
T1 sequence (Q7RTX0 21-852): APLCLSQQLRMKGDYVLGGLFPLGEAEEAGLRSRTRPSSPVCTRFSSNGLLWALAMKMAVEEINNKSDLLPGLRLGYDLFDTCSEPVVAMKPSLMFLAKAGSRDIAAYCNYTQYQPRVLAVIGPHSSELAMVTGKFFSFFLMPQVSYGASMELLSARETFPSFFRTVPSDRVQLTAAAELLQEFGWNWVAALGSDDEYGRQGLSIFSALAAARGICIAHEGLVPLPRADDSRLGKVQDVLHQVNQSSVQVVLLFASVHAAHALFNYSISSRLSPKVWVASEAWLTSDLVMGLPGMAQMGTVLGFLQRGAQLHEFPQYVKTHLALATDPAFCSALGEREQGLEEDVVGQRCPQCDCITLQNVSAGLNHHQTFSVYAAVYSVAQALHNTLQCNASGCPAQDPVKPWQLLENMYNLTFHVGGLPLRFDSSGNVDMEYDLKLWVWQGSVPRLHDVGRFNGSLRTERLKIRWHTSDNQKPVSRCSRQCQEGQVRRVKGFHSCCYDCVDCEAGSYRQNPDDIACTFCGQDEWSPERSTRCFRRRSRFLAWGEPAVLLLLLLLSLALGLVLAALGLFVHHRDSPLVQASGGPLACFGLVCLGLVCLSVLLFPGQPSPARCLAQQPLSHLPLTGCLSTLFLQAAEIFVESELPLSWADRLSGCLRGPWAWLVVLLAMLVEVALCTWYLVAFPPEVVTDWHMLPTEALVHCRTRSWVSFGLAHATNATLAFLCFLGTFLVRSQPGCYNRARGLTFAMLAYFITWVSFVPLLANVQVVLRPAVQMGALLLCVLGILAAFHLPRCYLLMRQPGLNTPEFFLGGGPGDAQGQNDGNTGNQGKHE
Details: for sensitivity of the assay to initiate receptor internalisation: comparison among the sweet compounds tested; for increase of chemiluminescence signal / internalisation response with concentration: shape of dose-response curve, Fig. 6A and 6B

[1] = Clone #1057 cells, % (w/v), Fig. 6
[2] = Clone #1057 cells, 3 h at 20°C, n=3, Fig. 6

Source text: Binding of beta-arrestin will then stimulate receptor internalisation to the endosome, bringing the EA (enzyme part fused to beta-arrestin) and ProLink (enzyme part fused to the endosome) enzyme parts of beta-gal in close proximity to each other, enabling the formation of a functional beta-gal enzyme. The level of functional beta-Gal formed is a measure for ligand-induced receptor internalisation activity and is quantified by lysing cells using the PathHunter™ substrate mix, allowing the conversion of substrate to chemiluminescence.
PathHunter™HEK293 Active Internalisation Parental cells (HEK-293 cells natively expressing the sweet taste receptor and comprising the enzyme complementation system) were maintained in high glucose Dulbecco's modified Eagle's medium (4.5 g/l D-glucose, L-glutamine, HEPES) supplemented with 10% fetal bovine serum (DMEM-HG) at 37°C, 5% CO2 and 90% humidity.
For the beta-arrestin mediated internalization assay cells were grown and maintained in DMEM-HG. […] After 18 h of glucose starvation, cells were seeded in DMEM-LG at a density of 2.5×10^4 cells per well in a clear Poly-D-Lysine coated 96-well plate (CellCoat; Greiner Bio-One GmbH, Frickenhausen, Germany) and incubated for 24 h. Next, the PathHunter™ Detection assay kit was used for receptor stimulation according to the manufacturer's instructions. […] After 3 h of incubation at 20°C, the stimulant was removed and PathHunter™ substrate was added in 100 µl CP10 Cell Plating Reagents. Luminescence was measured using an Infinite F200 (Tecan Group Ltd., Männedorf, Switzerland). Analysis was performed in triplicates (n=3). Data are presented as the mean luminescence change (ΔF) over the base-line level (F): ΔF/F = (F(stimulant)−F(negativecontrol))/F(negativecontrol).

`CC1=CC(=O)NS(=O)(=O)O1` [acesulfame-K] was tested, and the “concentration at which the maximum response (ΔF/Fmax) was reached” value (shortened to “concentration … (ΔF/Fmax) was reached”) was 5.5%.
In the case of `O=C(CO)[C@@H](O)[C@H](O)[C@H](O)CO` [fructose], the “concentration … (ΔF/Fmax) was reached” value [1] is reported as 9%, the “sensitivity of the assay to initiate receptor internalisation” value (“sensitivity of the assay” below) (Fig. 6) is reported as “highest sensitivity” and the “maximum level of chemiluminescence (ΔF/Fmax)” value (from here on “maximum level … (ΔF/Fmax)”) (human, hek293 cells, 3 h) is reported as 5.2. For the same compound, the “increase of chemiluminescence signal / internalisation response with concentration” value was “rather slow increase”.
`OC[C@@H](O)[C@@H](O[C@H]1O[C@H](CO)[C@@H](O)[C@H](O)[C@H]1O)[C@H](O)[C@@H](O)CO` [maltitol] was tested, and the “maximum level … (ΔF/Fmax)” value [2] was “nearly equal” and the “concentration … (ΔF/Fmax) was reached” value [1] was 17.0%.
For `OC[C@H]1O[C@H](O[C@H]2[C@H](O)[C@@H](O)[C@H](O)O[C@@H]2CO)[C@H](O)[C@@H](O)[C@@H]1O` [maltose], the “concentration … (ΔF/Fmax) was reached” value [1] was 16.5%, the “sensitivity of the assay” value (Fig. 6) was “lowest sensitivity of the natural sugars tested” and the “increase of chemiluminescence signal / internalisation response with concentration” value was “steep increase”.
For `OC[C@@H](O)[C@@H](O)[C@H](O)[C@H](O)CO` [mannitol], the “maximum level … (ΔF/Fmax)” value [2] was “nearly equal” and the “concentration … (ΔF/Fmax) was reached” value [1] was 7.7%.
With `OC[C@H]1O[C@H](O[C@]2(CCl)O[C@H](CCl)[C@@H](O)[C@@H]2O)[C@H](O)[C@@H](O)[C@H]1Cl` [sucralose] the “concentration … (ΔF/Fmax) was reached” value [1] was 15%, the “concentration at which receptor internalisation responses were initiated” value (Clone #1057 cells, Fig. 6) was “already observed at the lowest concentration tested” and the “sensitivity of the assay” value (Fig. 6) was “high sensitivity”.
`OC[C@H]1O[C@@](CO)(O[C@H]2O[C@H](CO)[C@@H](O)[C@H](O)[C@H]2O)[C@@H](O)[C@@H]1O` [sucrose] was tested, and the “increase of chemiluminescence signal / internalisation response with concentration” value was “rather slow increase”.
